From patent US9834514B2, “Antibiotic sensitivity-restoring and photosensitive agents” (New Mexico Tech Research Foundation, priority 2015, dated 2017)
Converted amounts (≈) assume the structure as drawn. Read-outs that look alike come from different tables or passages of the source. Marks after values point to notes of the source that are not given here.

Legend:
HeLa cells = test: Toxicity (IC50) on HeLa cells; format: cell-based, human; conditions: cancerous cervical epithelium HeLa cells; for IC50: Homo sapiens
Experimental: The toxicities of the compounds of the invention were determined for human cancerous cervical epithelium HeLa and normal lung fibroblast WI38 cells. The toxicities of EPIs INF-55 and INF-55Cl were quantified as controls. […] TABLE 2 compares the toxicity of compounds 7-11 on HeLa cells and normal WI38 cells.

VRE = test: MIC against VRE; format: cell-based, Enterococcus faecalis
Experimental: In a 12×75 mm borosilicate glass culture tube, 1 mL of cell suspension was added. Then, compound 7 was added to the cells, and the samples were mixed using a vortex mixer. […] The samples were incubated overnight at 37° C. on a rotary shaking incubator at 100 rpm.

S. aureus (ATCC 29213) = test: MIC against drug sensitive S. aureus; format: cell-based; conditions: Staphylococcus aureus
[1] = MIC against MRSA isolates; format: cell-based, S. aureus; conditions: Staphylococcus aureus
Experimental: (§1) The MICs of S. aureus ATCC 33591, BAA-44, BAA-1707, BAA-1717, BAA-1720, BAA-1747, BAA-1754, BAA-1761, BAA-1763, BAA-1764, and BAA-1766 were measured using a cell concentration of about 5×10^5 colony forming units (CFU)/mL. In a 96-well microtiter plate, two-fold dilutions were made of each drug (starting with 100 μM) in 100 μL of a cell suspension in trypticase soy broth (TSB). The samples were incubated overnight at 37° C. on a rotary shaking incubator set at 100 revolutions per minute (rpm) and were visually inspected for turbidity. A 20% well-volume of 3-(4,5-dimethylthiazol-2-yl)-2,5-diphenyltetrazolium bromide (MTT reagent, 5 mg/mL) was added, and the samples were incubated for about 20 minutes. The MICs were determined as the lowest concentration at which full visual inhibition was observed by the unaided eye.

[2] = tested on: MRSA isolates (S. aureus ATCC 33591, BAA-44, BAA-1707, BAA-1717, BAA-1720, BAA-1747, BAA-1754, BAA-1761, BAA-1763, BAA-1764, BAA-1766); test: MIC against MRSA isolates; format: cell-based
Experimental: as §1

[3] = Enterococcus, TABLE 23, read-out: VRE MIC
[4] = ATCC29213, ATCC 29213, read-out: S. aureus MIC
[5] = MRSA (ATCC BAA-44), TABLE 21, read-out: MRSA MIC
[6] = Enterococcus, common antibiotics, TABLE 24, read-out: MIC
[7] = antibiotics, MRSA isolate ATCC BAA-44
[8] = antibiotics, MRSA isolate ATCC BAA-1717
[9] = antibiotics, MRSA isolate ATCC 33591
[10] = antibiotics, MRSA isolate ATCC BAA-1707
[11] = antibiotics, MRSA isolate ATCC BAA-1720
[12] = antibiotics, MRSA isolate ATCC BAA-1747
[13] = antibiotics, MRSA isolate ATCC BAA-1754
[14] = antibiotics, MRSA isolate ATCC BAA-1761
[15] = antibiotics, MRSA isolate ATCC BAA-1763
[16] = antibiotics, MRSA isolate ATCC BAA-1764
[17] = antibiotics, MRSA isolate ATCC BAA-1766

For `CCOC(=O)c1ccc2[nH]c(-c3ccc(Cl)cc3)c(Oc3ccc(Cl)cc3)c2c1` [Compound 26], which IC50 (HeLa cells) is on record?
Its IC50 is 18.6 ± 1.1 µM.

With `Clc1ccc(/N=N/c2c(-c3ccc(Br)cc3)[nH]c3ccccc23)cc1` [Compound 27] as the compound, how does the IC50 (HeLa cells) read?
The IC50 was 12.5 ± 0.2 µM.

With `Brc1ccc(/N=N/c2c(-c3ccc(Br)cc3)[nH]c3ccccc23)cc1` [Compound 28] as the compound, how does the IC50 (HeLa cells) read?
Its IC50 is 8.6 ± 1.4 µM.

For `Fc1ccc(/N=N/c2c(-c3ccc(F)cc3)[nH]c3ccccc23)cc1` [Compound 29], which IC50 (HeLa cells) is on record?
The IC50 was 11.6 ± 0.7 µM.

With `COC(=O)n1c(Br)c(Br)c2ccccc21` [Compound 31] as the compound, how does the “IC50 HeLa” value (HeLa cells) read?
The value was “Non-Toxic”.

Which MIC (VRE; [3]) does the source give for `Cc1onc(-c2c(Cl)cccc2Cl)c1C(=O)N[C@@H]1C(=O)N2[C@@H]1SC(C)(C)[C@@H]2C(=O)O` [Dicloxicillin, reference compound] here?
The MIC was 4 µg/mL (≈ 8.5 µM).

And the MIC (S. aureus (ATCC 29213); [4])?
Its MIC is 50 to 100 µg/mL (≈ 106 to 213 µM).

With `C[C@H]1c2cccc(O)c2C(=O)C2=C(O)[C@]3(O)C(=O)C(C(N)=O)=C(O)[C@@H](N(C)C)[C@@H]3[C@@H](O)[C@@H]21` [Doxycycline, reference compound] as the compound, how does the MIC (VRE; [3]) read?
The MIC was 0.25 to 0.5 µg/mL (≈ 0.563 to 1.13 µM).

And the MIC (S. aureus (ATCC 29213); [4])?
Its MIC is 3.12 µg/mL (≈ 7.02 µM).

What about the MIC [1, 5] of the same compound?
The MIC was 3.12 µg/mL (≈ 7.02 µM).

Which MIC (VRE; [6]) does the source give for `CC[C@H]1OC(=O)[C@H](C)[C@@H](O[C@H]2C[C@@](C)(OC)[C@@H](O)[C@H](C)O2)[C@H](C)[C@@H](O[C@@H]2O[C@H](C)C[C@H](N(C)C)[C@H]2O)[C@](C)(O)C[C@@H](C)C(=O)[C@H](C)[C@@H](O)[C@]1(C)O` [Erythromycin, reference compound] here?
The MIC was > 32 µg/mL.

And the S/R (VRE; TABLE 24)?
Its S/R is “R”.

What about the MIC [1, 7] of the same compound?
Its MIC is > 1000 µg/mL.

And the MIC [1, 8]?
Its MIC is 30 µg/mL (≈ 40.9 µM).

With `O=[N+]([O-])c1ccc2[nH]c(-c3ccccc3)cc2c1` [INF-55, reference compound] as the compound, how does the “IC50 HeLa” value (HeLa cells) read?
Its value is “Non-Toxic”.

With `CC1(C)S[C@@H]2[C@H](NC(=O)Cc3ccccc3)C(=O)N2[C@H]1C(=O)O` [Penicillin G] as the compound, how does the S/R (VRE; TABLE 24) read?
Its S/R is “S”.

What about the MIC (VRE; common antibiotics, TABLE 24) of the same compound?
Its MIC is 2 µg/mL (≈ 5.98 µM).

For `CN(C)[C@@H]1C(O)=C(C(N)=O)C(=O)[C@@]2(O)C(O)=C3C(=O)c4c(O)cccc4[C@@](C)(O)[C@H]3C[C@@H]12` [Tetracycline], which MIC (VRE; [6]) is on record?
Its MIC is < 0.5 µg/mL.

What about the S/R (VRE; TABLE 24) of the same compound?
Its S/R is “S”.

With `NC[C@H]1O[C@H](O[C@H]2[C@H](O)[C@@H](O[C@H]3O[C@H](CO)[C@@H](O)[C@H](N)[C@H]3O)[C@H](N)C[C@@H]2N)[C@H](N)C[C@@H]1O` [Tobramycin, reference compound] as the compound, how does the MIC (VRE; [3]) read?
The MIC was > 200 µg/mL.

And the MIC (S. aureus (ATCC 29213); [4])?
Its MIC is 0.25 µg/mL (≈ 0.535 µM).

And the MIC [1, 5]?
The MIC was > 5000 µg/mL.

Which results are given for `CN[C@H](CC(C)C)C(=O)N[C@H]1C(=O)N[C@@H](CC(N)=O)C(=O)N[C@H]2C(=O)N[C@H]3C(=O)N[C@H](C(=O)N[C@H](C(=O)O)c4cc(O)cc(O)c4-c4cc3ccc4O)[C@H](O)c3ccc(c(Cl)c3)Oc3cc2cc(c3O[C@@H]2O[C@H](CO)[C@@H](O)[C@H](O)[C@H]2O[C@H]2C[C@](C)(N)[C@H](O)[C@H](C)O2)Oc2ccc(cc2Cl)[C@H]1O` [Vancomycin, reference compound]?
MIC (VRE; Enterococcus): 64 µg/mL (≈ 44.2 µM); MIC (VRE; Enterococcus, read-out: VRE MIC): > 40 µg/mL; S/R (VRE; TABLE 24): R; MIC (S. aureus (ATCC 29213); ATCC29213, read-out: S. aureus MIC): 2 µg/mL (≈ 1.38 µM); MIC [1, 9]: < 3.1 µg/mL; MIC [1, 7]: 3.1 µg/mL (≈ 2.14 µM); MIC [1, 10]: < 3.1 µg/mL; MIC [1, 8]: < 1.6 µg/mL; MIC [1, 11]: < 3.1 µg/mL; MIC [1, 12]: < 3.1 µg/mL; MIC [1, 13]: < 3.1 µg/mL; MIC [1, 14]: < 3.1 µg/mL; MIC [1, 15]: < 3.1 µg/mL; MIC [1, 16]: < 3.1 µg/mL; MIC [1, 17]: < 3.1 µg/mL; MIC ([1]; read-out: MRSA MIC, MRSA (ATCC BAA-44), TABLE 21): 3.12 µg/mL (≈ 2.15 µM)

With Gentamycin [reference compound] as the compound, how does the MIC [2, 9] read?
Its MIC is >100* μg/mL.

And the MIC [2, 7]?
Its MIC is >200* μg/mL.

What about the MIC [2, 10] of the same compound?
Its MIC is <3.1 µg/mL.

And the MIC [2, 8]?
The MIC was 3.1 µg/mL.

What about the MIC [2, 11] of the same compound?
The MIC was <3.1 µg/mL.

And the MIC [2, 12]?
Its MIC is 6.3 µg/mL.

What about the MIC [2, 13] of the same compound?
The MIC was <3.1 µg/mL.

And the MIC [2, 14]?
Its MIC is <3.1 µg/mL.

And the MIC [2, 15]?
The MIC was 3 to 6 µg/mL.

What about the MIC [2, 16] of the same compound?
Its MIC is <3.1 µg/mL.

And the MIC [2, 17]?
Its MIC is 12.5* μg/mL.

With INF-55Cl [reference compound] as the compound, how does the “IC50 HeLa” value (HeLa cells) read?
Its value is “Non-Toxic”.

For Penicillin [reference compound], which MIC ([2]; Penicillin, MRSA isolate ATCC BAA-44) is on record?
The MIC was 1.6* mg/mL.

What about the MIC ([2]; Penicillin, MRSA isolate ATCC BAA-1717) of the same compound?
The MIC was 1* mg/mL.
